# Measured values reported in patent publication US9533961B2, “Molecules having certain pesticidal utilities, and intermediates, compositions, and processes related thereto” (priority 2014, dated 2017).
# Experiments:
# Type in all cases: in vivo
# [1] = system: Cabbage Looper (Trichoplusia ni, TRIPNI) ("CL"); test: Bioassay on Cabbage Looper (CL), 128-well diet tray assay; conditions: 168 h, read-out: CL % Control (or Mortality) rating
# Protocol: (§1) Certain molecules disclosed in this document were tested against BAW and CEW using procedures described in the following examples. In the reporting of the results, the “BAW & CL Rating Table” was used (See Table Section).
# Bioassays on CL were conducted using a 128-well diet tray assay. one to five second instar CL larvae were placed in each well (3 mL) of the diet tray that had been previously filled with 1 mL of artificial diet to which 50 μg/cm^2 of the test compound (dissolved in 50 μL of 90:10 acetone-water mixture) had been applied (to each of eight wells) and then allowed to dry. Trays were covered with a clear self-adhesive cover and held at 25° C., 14:10 light-dark for five to seven days. Percent mortality was recorded for the larvae in each well; activity in the eight wells was then averaged. The results are indicated in the table entitled “Table ABC: Biological Results” (See Table Section).
# [2] = system: Beet Armyworm (Spodoptera exigua, LAPHEG) ("BAW"); test: Bioassay on Beet Armyworm (BAW), 128-well diet tray assay; conditions: 168 h, 50 μg/cm^2 on artificial diet, second instar larvae, five to seven days, 25° C., average of eight wells, read-out: BAW % Control (or Mortality) rating
# Protocol: as §1
# Bioassays on BAW were conducted using a 128-well diet tray assay. one to five second instar BAW larvae were placed in each well (3 mL) of the diet tray that had been previously filled with 1 mL of artificial diet to which 50 μg/cm^2 of the test compound (dissolved in 50 μL of 90:10 acetone-water mixture) had been applied (to each of eight wells) and then allowed to dry. Trays were covered with a clear self-adhesive cover and held at 25° C., 14:10 light-dark for five to seven days. Percent mortality was recorded for the larvae in each well; activity in the eight wells was then averaged. The results are indicated in the table entitled “Table ABC: Biological Results” (See Table Section).
# [3] = system: Yellow Fever Mosquito (Aedes aegypti, AEDSAE) ("YFM"); test: Bioassay on Yellow Fever Mosquito (YFM), 96-well plate larval assay; conditions: about 1 day-old larvae, from 4000 ppm master plate, scored on mortality after 3 days
# Protocol: Certain molecules disclosed in this document were tested against YFM using procedures described in the following paragraph. In the reporting of the results, the “YFM Rating Table” was used (See Table Section).
# Master plates containing 400 μg of a molecule dissolved in 100 μL of dimethyl sulfoxide (DMSO) (equivalent to a 4000 ppm solution) are used. A master plate of assembled molecules contains 15 μL per well. To this plate, 135 μL of a 90:10 water:acetone mixture is added to each well. A robot (Biomek® NXP Laboratory Automation Workstation) is programmed to dispense 15 μL aspirations from the master plate into an empty 96-well shallow plate (“daughter” plate). There are 6 reps (“daughter” plates) created per master. The created daughter plates are then immediately infested with YFM larvae.
# The day before plates are to be treated, mosquito eggs are placed in Millipore water containing liver powder to begin hatching (4 g. into 400 mL). After the daughter plates are created using the robot, they are infested with 220 μL of the liver powder/larval mosquito mixture (about 1 day-old larvae). After plates are infested with mosquito larvae, a non-evaporative lid is used to cover the plate to reduce drying. Plates are held at room temperature for 3 days prior to grading. After 3 days, each well is observed and scored based on mortality.
Compound,mortality at 50 µg/cm2 [1],mortality at 50 µg/cm2 [2],YFM % Control (or Mortality) rating [3]
"O=C(Nc1ccc(-c2ncn(-c3ccc(OC(F)(F)F)cc3)n2)cc1)c1ccccc1Cc1ccccc1 [F3, 2-benzyl-N-(4-(1-(4-(trifluoromethoxy)phenyl)-1H-1,2,4-triazol-3-yl)phenyl)benzamide]",50 to 100%,50 to 100%,D (No activity noticed in this bioassay)
"O=C(Nc1ccc(-c2ncn(-c3ccc(OC(F)(F)C(F)(F)F)cc3)n2)cc1)c1ccccc1Oc1ccccc1 [F8, N-(4-(1-(4-(Perfluoroethoxy)phenyl)-1H-1,2,4-triazol-3-yl)phenyl)-2-phenoxybenzamide]",0%,0%,D (No activity noticed in this bioassay)
"CCOc1ccccc1Oc1ccccc1C(=O)Nc1ccc(-c2ncn(-c3ccc(OC(F)(F)C(F)(F)F)cc3)n2)cc1 [F18, 2-(2-Ethoxyphenoxy)-N-(4-(1-(4-(perfluoroethoxy)phenyl)-1H-1,2,4-triazol-3-yl)phenyl)benzamide]",0%,0%,D (No activity noticed in this bioassay)
"COc1ccccc1C(=O)Nc1ccc(-c2ncn(-c3ccc(OC(F)(F)F)cc3)n2)cc1 [F11, 2-Methoxy-N-(4-(1-(4-(trifluoromethoxy)phenyl)-1H-1,2,4-triazol-3-yl)phenyl)benzamide]",0%,50 to 100%,D (No activity noticed in this bioassay)
"CC(C)COc1cccc(C(=O)Nc2ccc(-c3ncn(-c4ccc(OC(F)(F)F)cc4)n3)cc2)c1 [F19, 3-Isobutoxy-N-(4-(1-(4-(trifluoromethoxy)phenyl)-1H-1,2,4-triazol-3-yl)phenyl)benzamide]",50 to 100%,0%,D (No activity noticed in this bioassay)
"Cc1ccc(-c2ccccc2C(=O)NCc2ccc(-c3ncn(-c4ccc(OC(F)(F)F)cc4)n3)cc2)c(C)c1 [F33, 2′,4′-Dimethyl-N-(4-(1-(4-(trifluoromethoxy)phenyl)-1H-1,2,4-triazol-3-yl)benzyl)biphenyl-2-carboxamide]",50 to 100%,0 to 50%,A (80-100)
"O=C(Nc1ccc(-c2ncn(-c3ccc(OC(F)(F)F)cc3)n2)cc1)c1ccccc1COC1CCOCC1 [F23, 2-(((Tetrahydro-2H-pyran-4-yl)oxy)methyl)-N-(4-(1-(4-(trifluoromethoxy)phenyl)-1H-1,2,4-triazol-3-yl)phenyl)benzamide]",50 to 100%,50 to 100%,D (No activity noticed in this bioassay)
"CC(C)c1cccc(C(=O)Nc2ccc(-c3ncn(-c4ccc(OC(F)(F)C(F)(F)F)cc4)n3)cc2)c1 [F16, 3-Isopropyl-N-(4-(1-(4-(perfluoroethoxy)phenyl)-1H-1,2,4-triazol-3-yl)phenyl)benzamide]",50 to 100%,0%,D (No activity noticed in this bioassay)
"COc1ccccc1C(=O)Nc1ccc(-c2ncn(-c3ccc(OC(F)(F)C(F)(F)F)cc3)n2)cc1 [F12, 2-Methoxy-N-(4-(1-(4-(perfluoroethoxy)phenyl)-1H-1,2,4-triazol-3-yl)phenyl)benzamide]",50 to 100%,0%,D (No activity noticed in this bioassay)
"COc1cccc(C(=O)Nc2ccc(-c3ncn(-c4ccc(OC(F)(F)F)cc4)n3)cc2)c1 [F13, 3-Methoxy-N-(4-(1-(4-(trifluoromethoxy)phenyl)-1H-1,2,4-triazol-3-yl)phenyl)benzamide]",50 to 100%,50 to 100%,B (More than 0 - Less than 80)
"Cc1cccc(C)c1-c1ccccc1C(=O)NCc1ccc(-c2ncn(-c3ccc(OC(F)(F)F)cc3)n2)cc1 [F37, 2′,6′-Dimethyl-N-(4-(1-(4-(trifluoromethoxy)phenyl)-1H-1,2,4-triazol-3-yl)benzyl)biphenyl-2-carboxamide]",50 to 100%,0 to 50%,A (80-100)
"O=C(Nc1ccc(-c2ncn(-c3ccc(OC(F)(F)F)cc3)n2)cc1)c1ccccc1Oc1ccccc1 [F4, 2-Phenoxy-N-(4-(1-(4-(trifluoromethoxy)phenyl)-1H-1,2,4-triazol-3-yl)phenyl)benzamide]",50 to 100%,50 to 100%,D (No activity noticed in this bioassay)
"CC(C)c1ccccc1C(=O)NCc1ccc(-c2ncn(-c3ccc(OC(F)(F)F)cc3)n2)cc1 [F31, 2-Isopropyl-N-(4-(1-(4-(trifluoromethoxy)phenyl)-1H-1,2,4-triazol-3-yl)benzyl)benzamide]",0%,0%,D (No activity noticed in this bioassay)
"O=C(Nc1ccc(-c2ncn(-c3ccc(OC(F)(F)F)cc3)n2)cc1)c1cccc(Oc2ccccc2)c1 [F5, 3-Phenoxy-N-(4-(1-(4-(trifluoromethoxy)phenyl)-1H-1,2,4-triazol-3-yl)phenyl)benzamide]",50 to 100%,0%,D (No activity noticed in this bioassay)
"Cc1cc(F)ccc1-c1ccccc1C(=O)NCc1ccc(-c2ncn(-c3ccc(OC(F)(F)F)cc3)n2)cc1 [F40, 4′-Fluoro-2′-methyl-N-(4-(1-(4-(trifluoromethoxy)phenyl)-1H-1,2,4-triazol-3-yl)benzyl)biphenyl-2-carboxamide]",50 to 100%,50 to 100%,D (No activity noticed in this bioassay)
"O=C(Nc1ccc(-c2ncn(-c3ccc(OC(F)(F)F)cc3)n2)cc1)c1cccc(COCC(F)(F)C(F)F)c1 [F20, 3-((2,2,3,3-Tetrafluoropropoxy)methyl)-N-(4-(1-(4-(trifluoromethoxy)phenyl)-1H-1,2,4-triazol-3-yl)phenyl)benzamide]",0%,0%,B (More than 0 - Less than 80)
"O=C(Nc1ccc(-c2ncn(-c3ccc(OC(F)(F)F)cc3)n2)cc1)c1ccc2c(c1)OC(F)(F)O2 [F22, 2,2-Difluoro-N-(4-(1-(4-(trifluoromethoxy)phenyl)-1H-1,2,4-triazol-3-yl)phenyl)benzo[d][1,3]dioxole-5-carboxamide]",0%,0%,–
"O=C(Nc1ccc(-c2ncn(-c3ccc(OC(F)(F)C(F)(F)F)cc3)n2)cc1)c1cccc(Oc2ccccc2)c1 [F9, N-(4-(1-(4-(perfluoroethoxy)phenyl)-1H-1,2,4-triazol-3-yl)phenyl)-3-phenoxybenzamide]",0%,0%,D (No activity noticed in this bioassay)
"O=C(Nc1ccc(-c2ncn(-c3ccc(OC(F)(F)F)cc3)n2)cc1)c1cccc2c1OC(F)(F)O2 [F21, 2,2-Difluoro-N-(4-(1-(4-(trifluoromethoxy)phenyl)-1H-1,2,4-triazol-3-yl)phenyl)benzo[d][1,3]dioxole-4-carboxamide]",50 to 100%,50 to 100%,–
